Results: patent US9951057B2, “COMT inhibiting methods and compositions” (Lieber Institute for Brain Development, priority 2015, dated 2018)

Assays:
[1] = target: T1, catechol-O-methyltransferase (COMT) (Homo sapiens, UniProt P21964); assay: COMT inhibition assay (HTRF, production of SAH from SAM); format: biochemical; settings: recombinant human COMT, table does not say whether MB-COMT or S-COMT
T1 construct: M51A variant) was expressed in HEK 293F cells
T1 sequence (P21964 52-271 limits assumed): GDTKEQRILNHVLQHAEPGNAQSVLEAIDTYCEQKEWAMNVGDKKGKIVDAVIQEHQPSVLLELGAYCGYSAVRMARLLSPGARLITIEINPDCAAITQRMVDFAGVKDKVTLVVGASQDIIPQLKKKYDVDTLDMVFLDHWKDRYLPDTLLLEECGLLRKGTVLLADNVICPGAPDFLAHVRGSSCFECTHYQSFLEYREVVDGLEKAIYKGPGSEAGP
Protocol: The ability of compounds to inhibit the activity of catechol-O-methyltransferase (COMT) was determined by a homogenous time-resolved fluorescent (HTRF) assay (Lina et al, 2012; kit from CisBio, Codolet, France). This assay measures the production of S-adenosyl homocysteine (SAH) from the methyl donor S-adenosyl methionine. Recombinant human membrane bound COMT (MB-COMT; M51A variant) was expressed in HEK 293F cells using 293Fectin (Life Technologies, Gent, Belgium) and membranes prepared. The membranes were re-suspended in buffer (20 mM Tris/HCl pH 7; 10 mM glycerol; 2 mM MgCl2; 10 mM NaCl), aliquoted and stored at −80° C. Recombinant human soluble COMT (S-COMT), Val158 variant and a hexa-His tag on the N-terminus, was purified using Ni-NTA chromatography, the His tag removed and stored in buffer as above.
For the human MB-COMT assay, membranes (62 ng/well) were incubated with SAM (20 μM final, CisBio) and dopamine (1.5 μM final; Sigma H8502, Diegem, Belgium) in the presence or absence of varying concentrations (typically 10 concentrations ranging from 10 μM to 0.1 nM) of compound for 40 min at 37° C. in 384-well microtitre plates (10 μl per well final volume). The reaction was terminated by the addition of acylation buffer and the amount of SAH produced determined according to manufacturer's instructions. Specific inhibition as that inhibited by a high concentration of tolcapone (10 μM; synthesised at UCB) and all experiments were validated using a control curve to tolcapone.
The human S-COMT assay was performed as above except that 0.15 ng enzyme/well was incubated with SAM (20 μM final) and dopamine (100 μM final) for 15 min at 37° C. and SAH production determined.
HTRF readings were performed using a Perkin Elmer Envision and results expressed as concentration of SAH produced using a standard curve. Results were analysed using non-linear regression to the 4-parameter logistic equation and pIC50 (−log 10 concentration of drug which inhibits enzyme activity/SAH production by 50%) determined.

[2] = target: T2, aromatic amino acid decarboxylase (AAAD) (Homo sapiens, UniProt P20711); settings: given with L-DOPA; Nutt, Woodward et al. 1985; cited from earlier work
T2 sequence (P20711 1-480): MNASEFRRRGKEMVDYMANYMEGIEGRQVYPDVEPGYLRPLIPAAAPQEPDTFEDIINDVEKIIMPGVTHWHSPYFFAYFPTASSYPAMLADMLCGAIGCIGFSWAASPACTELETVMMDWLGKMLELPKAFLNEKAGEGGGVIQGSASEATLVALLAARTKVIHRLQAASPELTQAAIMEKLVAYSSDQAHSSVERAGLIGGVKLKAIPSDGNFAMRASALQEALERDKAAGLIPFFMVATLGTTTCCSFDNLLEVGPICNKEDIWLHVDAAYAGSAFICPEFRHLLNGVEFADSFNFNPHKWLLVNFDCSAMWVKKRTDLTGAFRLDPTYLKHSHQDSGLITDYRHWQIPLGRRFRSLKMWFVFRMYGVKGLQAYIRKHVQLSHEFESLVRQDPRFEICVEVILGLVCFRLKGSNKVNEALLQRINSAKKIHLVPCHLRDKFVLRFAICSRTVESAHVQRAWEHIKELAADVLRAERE

[3] = Nutt and Fellman 1984; cited from earlier work
[4] = clinical use; Olanow and Watkins 2007; cited from earlier work
[5] = Russ, et al. 1999; cited from earlier work

SMILES	Activity range (pIC50) [1]	also measured
O=S(=O)(c1cccnc1)c1cc(Cl)c(O)c2ncccc12 [Example 27, 7-chloro-5-(3-pyridylsulfonyl)quinolin-8-ol]	+ (a single plus (+) is associated with a pIC50 of from about 4.5 to 6)	
C[C@@H]1CCCN1S(=O)(=O)c1ccc(O)c2ncccc12 [Example 5, 5-[(2R)-2-methylpyrrolidin-1-yl]sulfonylquinolin-8-ol]	+++ (three plus signs (+++) is associated with a pIC50 of above about 7)	
O=S(=O)(c1cc(Cl)c(O)c2ncccc12)C1CCCC1 [Example 8, 7-chloro-5-cyclopentylsulfonyl-quinolin-8-ol]	++ (two plus signs (++) is associated with a pIC50 of from about great than 6 to 7)	
O=S(=O)(c1cc(Cl)c(O)c2ncccc12)C1CCCCC1 [Example 13, 7-chloro-5-cyclohexylsulfonyl-quinolin-8-ol]	+++ (three plus signs (+++) is associated with a pIC50 of above about 7)	
O=S(=O)(c1cc(Cl)cc(Cl)c1)c1cc(Cl)c(O)c2ncccc12 [Example 21, 7-chloro-5-(3,5-dichlorophenyl)sulfonyl-quinolin-8-ol]	+ (a single plus (+) is associated with a pIC50 of from about 4.5 to 6)	
Cc1ccc(S(=O)(=O)c2cc(Cl)c(O)c3ncccc23)c(C)c1 [Example 20, 7-chloro-5-(2,4-dimethylphenyl)sulfonyl-quinolin-8-ol]	+++ (three plus signs (+++) is associated with a pIC50 of above about 7)	
O=S(=O)(c1ccc(Cl)c(Cl)c1)c1cc(Cl)c(O)c2ncccc12 [Example 24, 7-chloro-5-(3,4-dichlorophenyl)sulfonyl-quinolin-8-ol]	++ (two plus signs (++) is associated with a pIC50 of from about great than 6 to 7)	
O=S(=O)(c1cc(F)c(O)c2ncccc12)C1CCCC1 [Example 10, 7-fluoro-5-cyclopentylsulfonyl-quinolin-8-ol]	+++ (three plus signs (+++) is associated with a pIC50 of above about 7)	
O=S(=O)(c1ccc(F)cc1)c1cc(F)c(O)c2ncccc12 [Example 14, 7-fluoro-5-(4-fluorophenyl)sulfonyl-quinolin-8-ol]	++ (two plus signs (++) is associated with a pIC50 of from about great than 6 to 7)	
C[C@@](Cc1ccc(O)c(O)c1)(NN)C(=O)O [Carbidopa]		reduction of the efficacious L-DOPA dose [2]: 60-80%
O=S(=O)(c1ccccn1)c1cc(Cl)c(O)c2ncccc12 [Example 19, 7-chloro-5-(2-pyridylsulfonyl)quinolin-8-ol]	++ (two plus signs (++) is associated with a pIC50 of from about great than 6 to 7)	
N[C@@H](Cc1ccc(O)c(O)c1)C(=O)O [L-DOPA, L-dihydroxyphenylalanine]		percentage of exogenously administered L-DOPA that reaches the brain [3]: ~1%
O=S(=O)(c1nccs1)c1cc(Cl)c(O)c2ncccc12 [Example 22, 7-chloro-5-thiazol-2-ylsulfonyl-quinolin-8-ol]	++ (two plus signs (++) is associated with a pIC50 of from about great than 6 to 7)	
Cc1cccc(S(=O)(=O)c2cc(Cl)c(O)c3ncccc23)c1 [Example 23, 7-chloro-5-(m-tolylsulfonyl)quinolin-8-ol]	++ (two plus signs (++) is associated with a pIC50 of from about great than 6 to 7)	
CC(C)S(=O)(=O)c1cc(Cl)c(O)c2ncccc12 [Example 12, 7-chloro-5-isopropylsulfonyl-quinolin-8-ol]	++ (two plus signs (++) is associated with a pIC50 of from about great than 6 to 7)	
O=S(=O)(c1ccc(C(F)(F)F)cc1)c1cc(F)c(O)c2ncccc12 [Example 15, 7-fluoro-5-[4-(trifluoromethyl)phenyl]sulfonyl-quinolin-8-ol]	++ (two plus signs (++) is associated with a pIC50 of from about great than 6 to 7)	

SMILES	Activity range (pIC50) [1]	also measured
CC(C)CS(=O)(=O)c1ccc(O)c2ncccc12 [Example 1, 5-isobutylsulfonylquinolin-8-ol]	+++ (three plus signs (+++) is associated with a pIC50 of above about 7)	
C[C@H]1CCCN1S(=O)(=O)c1ccc(O)c2ncccc12 [Example 6]	+++ (three plus signs (+++) is associated with a pIC50 of above about 7)	
Cc1ccc(S(=O)(=O)c2cc(Cl)c(O)c3ncccc23)cc1C [Example 17, 7-chloro-5-(3,4-dimethylphenyl)sulfonyl-quinolin-8-ol]	++ (two plus signs (++) is associated with a pIC50 of from about great than 6 to 7)	
O=S(=O)(c1cccc(-c2ccccc2)c1)c1cc(Cl)c(O)c2ncccc12 [Example 25, 7-chloro-5-(3-phenylphenyl)sulfonyl-quinolin-8-ol]	++ (two plus signs (++) is associated with a pIC50 of from about great than 6 to 7)	
O=S(=O)(c1ccccn1)c1cc(F)c(O)c2ncccc12 [Example 16, 7-fluoro-5-(2-pyridylsulfonyl)quinolin-8-ol]	++ (two plus signs (++) is associated with a pIC50 of from about great than 6 to 7)	
O=S(=O)(c1ccc(F)cc1)c1cc(Cl)c(O)c2ncccc12 [Example 9, 7-chloro-5-(4-fluorophenyl)sulfonyl-quinolin-8-ol]	++ (two plus signs (++) is associated with a pIC50 of from about great than 6 to 7)	
O=S(=O)(c1cc(Cl)c(O)c2ncccc12)N1CCCC1 [Example 7, 7-chloro-5-pyrrolidin-1-ylsulfonyl-quinolin-8-ol]	++ (two plus signs (++) is associated with a pIC50 of from about great than 6 to 7)	
CC(C)(C)c1ccc(S(=O)(=O)c2cc(Cl)c(O)c3ncccc23)cc1 [Example 26, 5-(4-tert-butylphenyl)sulfonyl-7-chloro-quinolin-8-ol]	+ (a single plus (+) is associated with a pIC50 of from about 4.5 to 6)	
Cc1ccc(C(=O)c2cc(O)c(O)c([N+](=O)[O-])c2)cc1 [tolcapone]		liver injury [4]: associated with serious liver injury, including three deaths; brain penetration / levels in the brain [5]: low but measurable levels in the brain
O=S(=O)(c1ccc(O)c2ncccc12)C1CCOCC1 [Example 3, 5-tetrahydropyran-4-ylsulfonyquinolin-8-ol]	++ (two plus signs (++) is associated with a pIC50 of from about great than 6 to 7)	
CC(C)CS(=O)(=O)c1cc(Cl)c(O)c2ncccc12 [Example 11, 7-chloro-5-isobutylsulfonyl-quinolin-8-ol]	+ (a single plus (+) is associated with a pIC50 of from about 4.5 to 6)	
O=S(=O)(c1ccc[n+]([O-])c1)c1cc(Cl)c(O)c2ncccc12 [Example 28, 7-chloro-5-(1-oxidopyridin-1-ium-3-yl)sulfonyl-quinolin-8-ol]	+ (a single plus (+) is associated with a pIC50 of from about 4.5 to 6)	
O=S(=O)(c1ccc(C(F)(F)F)cc1)c1cc(Cl)c(O)c2ncccc12 [Example 18, 7-chloro-5-[4-(trifluoromethyl)phenyl]sulfonyl-quinolin-8-ol]	++ (two plus signs (++) is associated with a pIC50 of from about great than 6 to 7)	
CCCCCCCCS(=O)(=O)c1ccc(O)c2ncccc12 [Example 2, 5-octylsulfonylquinolin-8-ol]	+++ (three plus signs (+++) is associated with a pIC50 of above about 7)	
CCN(CC)C(=O)/C(C#N)=C/c1cc(O)c(O)c([N+](=O)[O-])c1 [entacapone]		brain penetration / levels in the brain [5]: negligible brain penetration
